Legend:
Test in all cases: relative viability (nuclei count vs DMSO), 5 days (fraction); higher = more cells survive
[1] = compound: O=c1ncccn1[C@@H]1O[C@H](CO)[C@@H](O)[C@H]1O [Zebularine] + C[C@@H](Oc1cc(-c2cnn(C3CCNCC3)c2)cnc1N)c1c(Cl)ccc(F)c1Cl [Crizotinib] (partner 1 µM)
Procedure, shortened: (§1)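 Relative viability equals treated-well nuclei counts divided by vehicle-well nuclei counts. Counts came from 4× images of lung cancer cell lines grown in 1536-well plates for 5 days after pin-tool dosing on the day after seeding. Dosing used one drug alone or a fixed anchor-drug dose plus five library-drug doses (not always all listed) in √10 steps, and values are medians of duplicate plates.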

[2] = compound: O=c1ncccn1[C@@H]1O[C@H](CO)[C@@H](O)[C@H]1O [Zebularine] + C[C@]1(O)C[C@@H](c2nc(-c3ccc4ccc(-c5ccccc5)nc4c3)c3c(N)nccn32)C1 [Linsitinib] (partner 1 µM)
Procedure, shortened: as §1

[3] = compound: CC(C)CCN1c2nc(Nc3cc(F)c(O)c(F)c3)ncc2N(C)C(=O)C1C [BI-D1870] + CC(=O)c1c(C)c2cnc(Nc3ccc(N4CCNCC4)cn3)nc2n(C2CCCC2)c1=O [Palbociclib] (partner 0.5 µM)
Procedure, shortened: as §1

[4] = compound: CC(C)CCN1c2nc(Nc3cc(F)c(O)c(F)c3)ncc2N(C)C(=O)C1C [BI-D1870] + CC1(C)CCC(c2ccc(Cl)cc2)=C(CN2CCN(c3ccc(C(=O)NS(=O)(=O)c4ccc(N[C@H](CCN5CCOCC5)CSc5ccccc5)c(S(=O)(=O)C(F)(F)F)c4)cc3)CC2)C1 [Navitoclax] (partner 0.5 µM)
Procedure, shortened: as §1

Cell Line	relative viability ([1]; first compound 1 µM)	relative viability ([1]; first compound 3.162 µM)	relative viability ([1]; first compound 10 µM)	relative viability ([1]; first compound 31.62 µM)	relative viability ([1]; first compound 100 µM)	relative viability ([2]; first compound 1 µM)	relative viability ([2]; first compound 3.162 µM)	relative viability ([2]; first compound 10 µM)	relative viability ([2]; first compound 31.62 µM)	relative viability ([2]; first compound 100 µM)	relative viability ([3]; first compound 0.04 µM)	relative viability ([3]; first compound 0.1265 µM)	relative viability ([3]; first compound 0.4 µM)	relative viability ([3]; first compound 1.265 µM)	relative viability ([3]; first compound 4 µM)	relative viability ([4]; first compound 0.04 µM)	relative viability ([4]; first compound 0.1265 µM)	relative viability ([4]; first compound 0.4 µM)	relative viability ([4]; first compound 1.265 µM)	relative viability ([4]; first compound 4 µM)
201T	1.08	1.03	0.861	1.11	1.01	1.13	1.02	1.05	1.09	1.04	0.358	0.339	0.362	0.365	0.356	1.18	1.18	1.19	1.23	1.19
A549	0.847	0.846	0.478	0.228	0.164	0.741	0.635	0.304	0.716	0.279	–	–	–	–	–	1.31	1.15	1.28	1.15	0.123
A-427	1.21	0.795	0.624	0.345	0.188	1.12	1.08	0.855	0.513	0.256	0.59	0.488	0.532	0.555	0.495	1.1	0.958	0.922	0.997	0.999
ABC-1	1.04	1.01	0.812	0.779	0.565	0.678	0.713	0.572	0.544	0.481	0.973	0.708	0.667	0.849	0.679	–	–	–	–	–
BEN	0.812	0.81	0.433	0.37	0.328	0.911	0.777	0.432	0.384	0.308	0.486	0.45	0.472	0.46	0.423	0.0563	0.0674	0.0746	0.383	0.0789
CAL-12T	0.657	0.596	–	0.719	0.574	0.819	0.794	0.716	0.896	0.464	0.593	0.399	0.34	0.336	0.203	1.35	1.03	1.19	1.07	1.08
COR-L23	0.633	0.742	0.454	0.351	0.182	0.977	1.05	0.448	0.493	0.211	0.281	0.24	0.315	0.257	0.278	1.15	0.951	1.06	1.1	0.479
COR-L 105	1.07	0.785	0.503	0.718	0.729	0.986	0.956	0.928	1.22	0.939	0.412	0.395	0.407	0.41	0.425	0.863	0.673	0.761	0.997	0.75
Calu-6	0.902	0.77	0.556	0.447	0.211	1.03	0.946	0.734	0.864	0.209	–	–	–	–	–	0.989	0.829	0.823	0.671	0.352
ChaGo-K-1	1.09	1	0.603	0.406	0.39	–	–	–	–	–	0.907	0.876	0.887	0.978	0.949	0.94	0.976	0.808	1.03	0.654
EBC-1	0.191	0.18	–	0.187	0.189	1.1	0.975	0.979	1.21	0.854	–	–	–	–	–	0.433	0.424	0.367	0.194	0.134
EKVX	1.11	0.87	–	0.896	1.11	1.16	1.01	–	1.15	0.979	0.472	0.366	0.352	0.385	0.341	1.01	0.909	0.889	1	0.922
EMC-BAC-2	0.795	0.67	0.689	0.777	0.824	0.899	0.886	0.637	0.879	0.839	0.555	0.505	0.511	0.544	0.483	1.24	1.06	1.09	1.21	1.18
EPLC-272H	0.969	–	–	0.839	0.685	1.62	–	–	1.05	0.746	0.323	0.358	0.306	0.288	0.23	1.3	0.932	1.05	1.24	1.03
H3255	0.945	0.853	0.576	0.91	0.858	0.979	1.05	–	0.956	1	0.335	0.311	0.325	0.335	0.321	0.688	0.598	0.56	0.595	0.468
HARA	1.17	1.11	–	1.17	0.834	1.01	0.923	–	0.968	0.623	0.219	0.234	0.263	0.272	0.23	1.2	1.13	1.16	1.23	1.08
HCC-15	1.02	0.761	0.586	0.769	0.219	0.983	0.883	0.615	0.773	0.251	0.701	0.64	0.722	0.746	0.681	0.685	0.656	0.681	0.721	0.459
HCC-44	0.808	0.798	0.698	0.656	0.166	0.77	0.655	0.466	0.577	0.218	0.966	0.901	0.919	1.01	0.946	1.04	0.944	0.999	1.1	0.847
HCC-78	0.336	0.335	0.298	0.359	0.252	0.53	0.562	0.379	0.43	0.229	0.456	0.489	0.405	0.462	0.454	0.736	0.825	0.81	0.987	0.778
HCC-366	0.774	0.637	0.2	0.265	0.133	0.764	0.75	0.428	0.355	0.0776	0.422	0.404	0.329	0.445	0.376	1.15	0.964	1.08	1.01	1.05

Cell Line	relative viability ([1]; first compound 1 µM)	relative viability ([1]; first compound 3.162 µM)	relative viability ([1]; first compound 10 µM)	relative viability ([1]; first compound 31.62 µM)	relative viability ([1]; first compound 100 µM)	relative viability ([2]; first compound 1 µM)	relative viability ([2]; first compound 3.162 µM)	relative viability ([2]; first compound 10 µM)	relative viability ([2]; first compound 31.62 µM)	relative viability ([2]; first compound 100 µM)	relative viability ([3]; first compound 0.04 µM)	relative viability ([3]; first compound 0.1265 µM)	relative viability ([3]; first compound 0.4 µM)	relative viability ([3]; first compound 1.265 µM)	relative viability ([3]; first compound 4 µM)	relative viability ([4]; first compound 0.04 µM)	relative viability ([4]; first compound 0.1265 µM)	relative viability ([4]; first compound 0.4 µM)	relative viability ([4]; first compound 1.265 µM)	relative viability ([4]; first compound 4 µM)
HCC-827	1.07	0.907	0.785	0.647	0.339	0.974	1.01	0.941	0.757	0.361	0.444	0.431	0.421	0.446	0.432	1.07	1.03	1.02	1.02	0.941
HOP-62	0.923	0.245	0.601	0.209	0.129	1.05	0.848	0.557	0.188	0.118	0.508	0.419	0.496	0.522	0.405	1.06	1.01	0.995	1.2	1.01
IA-LM	1.07	0.718	–	1.1	0.609	0.723	0.794	–	0.878	0.503	–	–	–	–	–	0.818	0.926	0.764	0.577	0.19
LC-2-ad	0.498	0.434	0.363	0.377	0.249	0.924	0.844	0.591	0.496	0.157	0.577	0.471	0.509	0.477	0.401	0.549	0.44	0.444	0.41	0.244
LCLC-103H	1.07	1.11	0.867	1.07	0.862	1.17	1.24	0.87	1	0.945	0.475	0.471	0.439	0.409	0.379	–	–	–	–	–
NCI-H358	0.618	0.475	0.237	0.387	0.252	0.796	0.822	0.469	0.516	0.26	0.121	0.124	0.117	0.128	0.126	–	–	–	–	–
NCI-H522	–	–	–	–	–	–	–	–	–	–	1.03	1.06	0.943	0.975	0.788	–	–	–	–	–
NCI-H596	0.994	0.948	0.85	0.902	0.988	1.03	1.04	0.832	1.06	1.01	–	–	–	–	–	1.21	0.922	0.947	1.2	0.987
NCI-H650	0.598	0.652	0.587	0.43	0.334	0.931	0.755	0.467	0.43	0.374	0.384	0.304	0.338	0.353	0.233	–	–	–	–	–
NCI-H661	1.24	1	1.02	1.05	0.997	0.499	0.541	0.58	0.539	0.633	0.459	0.392	0.419	0.384	0.358	–	–	–	–	–
NCI-H1299	0.963	0.921	0.788	0.893	0.566	1.09	0.993	0.984	1.07	0.535	–	–	–	–	–	1.04	1	1.09	1.01	0.843
NCI-H1395	–	–	–	–	–	1.03	1.09	0.869	0.653	0.533	0.649	0.603	0.64	0.717	0.638	1.16	1.12	1.36	1.01	0.871
NCI-H1563	0.877	0.873	0.849	0.935	0.828	1.21	1.17	1.17	1.22	1.17	–	–	–	–	–	–	–	–	–	–
NCI-H1648	–	–	–	–	–	–	–	–	–	–	0.285	0.273	–	0.308	0.259	–	–	–	–	–
NCI-H1650	1.04	0.788	–	1.13	0.86	–	–	–	–	–	0.372	0.316	0.338	0.321	0.335	1.26	1.05	1.23	1.34	1.15
NCI-H1703	0.623	0.852	–	0.67	0.913	0.633	0.512	0.644	0.941	0.525	–	–	–	–	–	1.1	0.846	1.02	1.28	0.745
NCI-H1793	–	–	–	–	–	0.882	0.978	0.365	0.464	0.197	0.369	0.274	0.291	0.391	0.318	0.34	0.342	0.372	0.554	0.45
NCI-H2170	1.31	1.13	0.7	0.981	0.517	–	–	–	–	–	0.455	0.38	0.423	0.447	0.398	0.608	0.524	0.578	0.514	0.496
NCI-H2342	–	–	–	–	–	–	–	–	–	–	0.508	0.511	0.528	0.528	0.559	–	–	–	–	–
SW 900	–	–	–	–	–	–	–	–	–	–	0.697	0.478	0.511	0.536	0.517	–	–	–	–	–

Reference: the supplement of paper PMC10307832
